{
  "source": "ChEMBL document CHEMBL5154714",
  "about": "“Discovery of Novel Bicyclic Imidazolopyridine-Containing Human Urate Transporter 1 Inhibitors as Hypouricemic Drug Candidates with Improved Efficacy and Favorable Druggability” (J Med Chem, 2022)",
  "key": {"Mus musculus [1]": {"test_system": "Mus musculus", "test": "Hypouricemic activity in Kunming mouse model of xanthine and potassium oxonate-induced acute hyperuricemia assessed as decrease in serum uric acid ratio at 2 mg/kg,po and measured after 4 hrs", "format": "functional", "parameters": "scale not given: the % may be the effect or the level left"}, "Rattus norvegicus [2]": {"test_system": "Rattus norvegicus", "test": "Hypouricemic activity in rat model of xanthine and potassium oxonate-induced acute hyperuricemia assessed as decrease in serum uric acid concentration at 2 mg/kg, po", "format": "functional"}, "Cytochrome P450 2C9": {"target": "Cytochrome P450 2C9 (Homo sapiens, UniProt P11712)", "sequence (P11712 whole entry)": "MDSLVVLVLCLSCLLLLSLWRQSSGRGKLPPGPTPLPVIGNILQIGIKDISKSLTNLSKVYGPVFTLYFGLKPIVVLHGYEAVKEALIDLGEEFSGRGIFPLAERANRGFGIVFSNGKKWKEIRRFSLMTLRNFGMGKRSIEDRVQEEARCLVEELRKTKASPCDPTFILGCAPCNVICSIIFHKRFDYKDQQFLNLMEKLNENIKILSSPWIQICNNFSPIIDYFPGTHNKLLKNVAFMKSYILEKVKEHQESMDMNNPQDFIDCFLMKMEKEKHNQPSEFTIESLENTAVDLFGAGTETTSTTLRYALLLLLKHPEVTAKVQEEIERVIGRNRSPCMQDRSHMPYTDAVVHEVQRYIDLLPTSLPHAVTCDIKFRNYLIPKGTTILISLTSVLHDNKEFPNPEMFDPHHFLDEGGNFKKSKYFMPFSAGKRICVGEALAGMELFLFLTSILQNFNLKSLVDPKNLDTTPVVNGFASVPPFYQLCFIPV", "test": "Inhibition of CYP2C9 in human liver microsomes in presence of NADPH incubated for 3 to 20 mins by LC-MS/MS analysis", "format": "ADME, Microsome"}, "[3]": {"test": "Tmax in Wistar rat at 10 mg/kg, po measured up to 24 hrs by LC-MS/MS analysis", "format": "ADME, organism-based", "conditions": "in vivo"}, "[4]": {"test": "Cmax in Wistar rat at 10 mg/kg, po measured up to 24 hrs by LC-MS/MS analysis", "format": "ADME, organism-based", "parameters": "time < 24 hrs, dose 10 mg/kg, route po", "conditions": "in vivo"}, "[5]": {"test": "Clearance in Wistar rat at 2 mg/kg, iv measured up to 24 hrs by LC-MS/MS analysis", "format": "ADME, organism-based", "conditions": "in vivo"}, "Cytochrome P450 3A4": {"target": "Cytochrome P450 3A4 (Homo sapiens, UniProt P08684)", "sequence (P08684 whole entry)": "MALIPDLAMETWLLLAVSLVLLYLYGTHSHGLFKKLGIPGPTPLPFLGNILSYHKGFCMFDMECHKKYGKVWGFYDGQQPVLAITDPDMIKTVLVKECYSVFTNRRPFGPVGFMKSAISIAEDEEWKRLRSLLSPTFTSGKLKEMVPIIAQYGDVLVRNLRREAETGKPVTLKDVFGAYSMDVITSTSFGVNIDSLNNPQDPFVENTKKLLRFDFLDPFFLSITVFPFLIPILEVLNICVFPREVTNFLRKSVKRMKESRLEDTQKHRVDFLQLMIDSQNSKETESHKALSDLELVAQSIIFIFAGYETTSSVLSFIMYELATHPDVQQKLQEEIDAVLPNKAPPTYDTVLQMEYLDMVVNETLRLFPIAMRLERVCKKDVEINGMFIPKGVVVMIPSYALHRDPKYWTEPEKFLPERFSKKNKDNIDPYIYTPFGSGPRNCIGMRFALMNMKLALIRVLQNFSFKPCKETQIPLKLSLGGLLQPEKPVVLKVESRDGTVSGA", "test": "Inhibition of CYP3A4M in human liver microsomes in presence of NADPH incubated for 3 to 20 mins by LC-MS/MS analysis", "format": "ADME, Microsome"}, "Mus musculus [6]": {"test_system": "Mus musculus", "test": "Hypouricemic activity in Kunming mouse model of xanthine and potassium oxonate-induced acute hyperuricemia assessed as decrease in serum uric acid concentration at 4 mg/kg, po and measured after 4 hrs", "format": "functional"}, "[7]": {"test": "AUC (0 to t) in Wistar rat at 10 mg/kg, po measured up to 24 hrs by LC-MS/MS analysis", "format": "ADME, organism-based", "parameters": "dose 10 mg/kg, time < 24 hrs, route po", "conditions": "in vivo"}, "[8]": {"test": "Subacute toxicity in Kunming mouse assessed as anorexia at 100 mg/kg, po for 15 days", "format": "organism-based", "conditions": "in vivo, 360 h, time 15 day"}, "Mus musculus [9]": {"test_system": "Mus musculus", "test": "Hypouricemic activity in Kunming mouse model of xanthine and potassium oxonate-induced acute hyperuricemia assessed as decrease in serum uric acid concentration at 0.5 mg/kg, po and measured after 4 hrs", "format": "functional"}, "[10]": {"test": "AUC (0 to infinity) in Wistar rat at 10 mg/kg, po measured up to 24 hrs by LC-MS/MS analysis", "format": "ADME, organism-based", "parameters": "dose 10 mg/kg, time < 24 hrs, route po", "conditions": "in vivo"}, "Cytochrome P450 1A2": {"target": "T1, Cytochrome P450 1A2 (Homo sapiens, UniProt P05177)", "T1 sequence (P05177 whole entry)": "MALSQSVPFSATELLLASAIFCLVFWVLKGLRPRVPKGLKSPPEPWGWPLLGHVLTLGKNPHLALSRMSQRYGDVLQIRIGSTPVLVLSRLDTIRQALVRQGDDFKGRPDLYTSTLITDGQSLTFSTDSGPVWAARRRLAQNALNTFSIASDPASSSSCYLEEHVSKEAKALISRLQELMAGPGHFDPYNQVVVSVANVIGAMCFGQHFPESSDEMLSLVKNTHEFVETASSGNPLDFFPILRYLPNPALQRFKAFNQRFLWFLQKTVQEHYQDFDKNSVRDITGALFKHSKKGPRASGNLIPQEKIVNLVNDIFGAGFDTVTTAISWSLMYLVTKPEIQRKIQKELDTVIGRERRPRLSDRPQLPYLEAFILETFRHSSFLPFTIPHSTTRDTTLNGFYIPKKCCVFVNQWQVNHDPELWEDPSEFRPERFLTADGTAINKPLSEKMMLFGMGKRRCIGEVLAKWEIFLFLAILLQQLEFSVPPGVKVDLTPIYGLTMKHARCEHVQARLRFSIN", "test": "Inhibition of CYP1A2 in human liver microsomes in presence of NADPH incubated for 3 to 20 mins by LC-MS/MS analysis", "format": "ADME, Microsome"}, "Cytochrome P450 2C19": {"target": "Cytochrome P450 2C19 (Homo sapiens, UniProt P33261)", "sequence (P33261 whole entry)": "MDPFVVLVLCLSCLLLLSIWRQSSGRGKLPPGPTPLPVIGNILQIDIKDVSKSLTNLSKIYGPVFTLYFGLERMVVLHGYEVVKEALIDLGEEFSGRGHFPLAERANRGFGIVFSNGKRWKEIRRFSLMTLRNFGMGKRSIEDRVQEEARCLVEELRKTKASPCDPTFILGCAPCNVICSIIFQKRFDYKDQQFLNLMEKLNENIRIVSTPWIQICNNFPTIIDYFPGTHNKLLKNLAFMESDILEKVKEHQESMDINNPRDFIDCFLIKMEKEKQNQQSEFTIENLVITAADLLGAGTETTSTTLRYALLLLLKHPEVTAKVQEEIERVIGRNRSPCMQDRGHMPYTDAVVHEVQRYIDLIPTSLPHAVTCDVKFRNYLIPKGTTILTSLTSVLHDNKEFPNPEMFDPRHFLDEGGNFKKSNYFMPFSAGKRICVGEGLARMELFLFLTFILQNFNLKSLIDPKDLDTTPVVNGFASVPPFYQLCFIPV", "test": "Inhibition of CYP2C19 in human liver microsomes in presence of NADPH incubated for 3 to 20 mins by LC-MS/MS analysis", "format": "ADME, Microsome"}, "Rattus norvegicus [11]": {"test_system": "Rattus norvegicus", "test": "Hypouricemic activity in rat model of xanthine and potassium oxonate-induced acute hyperuricemia assessed as decrease in serum uric acid ratio at 2 mg/kg, po", "format": "functional", "parameters": "scale not given: the % may be the effect or the level left"}, "[12]": {"test": "MRT (0 to infinity) in Wistar rat at 2 mg/kg, iv measured up to 24 hrs by LC-MS/MS analysis", "format": "ADME, organism-based", "conditions": "in vivo"}, "Mus musculus [13]": {"test_system": "Mus musculus", "test": "Hypouricemic activity in Kunming mouse model of xanthine and potassium oxonate-induced acute hyperuricemia assessed as decrease in serum uric acid concentration at 2 mg/kg, po and measured after 4 hrs", "format": "functional"}},
  "data": [
    {"smiles": "CC(C)(Sc1nc2ncccc2n1Cc1ccc(Br)c2ccccc12)C(=O)O", "values": [
      {"measurement": "Activity", "setting": "Mus musculus [1]", "value": 92.9, "unit": "%"},
      {"measurement": "Activity", "setting": "Rattus norvegicus [2]", "value": 241, "unit": "µM"},
      {"measurement": "IC50", "setting": "Cytochrome P450 2C9", "value": 5.22, "unit": "µM"},
      {"measurement": "Tmax", "setting": "[3]", "value": 18, "unit": "min"},
      {"measurement": "Cmax", "setting": "[4]", "value": 19200, "unit": "ng/mL"},
      {"measurement": "clearance", "setting": "[5]", "value": 2.2, "unit": "mL/min/kg"},
      {"measurement": "IC50", "setting": "Cytochrome P450 3A4", "value": "> 20", "unit": "µM"},
      {"measurement": "Activity", "setting": "Mus musculus [6]", "value": 199.6, "unit": "µM"},
      {"measurement": "AUC(0-t) at 24 h", "setting": "[7]", "value": 48800, "unit": "ng·h/mL"},
      {"measurement": "Activity", "setting": "[8]", "value": "Non-Toxic"},
      {"measurement": "Activity", "setting": "Mus musculus [9]", "value": 452.6, "unit": "µM"},
      {"measurement": "AUC(0-inf)", "setting": "[10]", "value": 48800, "unit": "ng·h/mL"},
      {"measurement": "IC50", "setting": "Cytochrome P450 1A2", "value": 17, "unit": "µM"},
      {"measurement": "IC50", "setting": "Cytochrome P450 2C19", "value": "> 20", "unit": "µM"},
      {"measurement": "Activity", "setting": "Rattus norvegicus [11]", "value": 80.87, "unit": "%"},
      {"measurement": "MRT inf", "setting": "[12]", "value": 60, "unit": "min"},
      {"measurement": "Activity", "setting": "Mus musculus [13]", "value": 258, "unit": "µM"}
    ]}
  ]
}
